Reference: ChEMBL document CHEMBL1201862, “PubChem BioAssay data set” (2004)
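Tested at 5 concentrations; 48 h exposure; 96-well plates; endpoints linearly interpolated, else capped at highest concentration. GI50 = concentration required for 50% inhibition of growth.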 Active and inactive are the calls of the source. Rule as the data show it: active = GI50 up to about 1.1 µM and inactive = higher.

Experiments:
Assay in all cases: NCI tumour cell line growth inhibition, 48 h
A498 = tested on: A498
ACHN = tested on: ACHN
KM12 = tested on: KM12
LOX IMVI = tested on: LOX IMVI
OVCAR-3 = tested on: OVCAR-3
RXF 393 = tested on: RXF 393
SF-268 = tested on: SF-268
SF-295 = tested on: SF-295
SK-MEL-28 = tested on: SK-MEL-28
SNB-75 = tested on: SNB-75
TK-10 = tested on: TK-10
UACC-62 = tested on: UACC-62
HL-60 = tested on: HL-60
NCI-H226 = tested on: NCI-H226
NCI-H522 = tested on: NCI-H522
SK-OV-3 = tested on: SK-OV-3

Measured: GI50

COc1ccc(C(=O)NCCC2=CCCCC2)cc1
inactive: A498 85.7 µM | ACHN > 100 µM | KM12 > 100 µM | LOX IMVI > 100 µM | OVCAR-3 > 100 µM | RXF 393 > 100 µM | SF-268 > 100 µM | SF-295 > 100 µM | SK-MEL-28 > 100 µM | SNB-75 > 100 µM | TK-10 > 100 µM | UACC-62 > 100 µM

COC(=O)c1c(C)oc2ccc(OC(C)=O)cc12
inactive: A498 > 100 µM | ACHN > 100 µM | HL-60 > 100 µM | KM12 > 100 µM | LOX IMVI > 100 µM | NCI-H226 > 100 µM | NCI-H522 > 100 µM | OVCAR-3 > 100 µM | RXF 393 > 100 µM | SF-268 90.8 µM | SF-295 > 100 µM | SK-MEL-28 > 100 µM | SK-OV-3 > 100 µM | SNB-75 34.8 µM | TK-10 > 100 µM | UACC-62 97.7 µM

O=C1/C(=C/c2ccc3c(c2)OCO3)SC2C=Nc3ccccc3N12 (stereo not drawn)
inactive: A498 > 100 µM | ACHN > 100 µM | KM12 > 100 µM | LOX IMVI > 10 µM | NCI-H226 > 100 µM | NCI-H522 > 100 µM | OVCAR-3 > 100 µM | RXF 393 > 100 µM | SF-268 > 100 µM | SF-295 > 100 µM | SK-MEL-28 > 100 µM | SNB-75 28.9 µM | TK-10 > 100 µM | UACC-62 54.8 µM

CC1(Cl)CC2OC3(Br)C=CC(C)(O)C2(CC1Br)C3(C)C (stereo not drawn)
inactive: A498 > 100 µM | ACHN > 100 µM | HL-60 51.1 µM | KM12 > 100 µM | LOX IMVI > 100 µM | NCI-H226 > 100 µM | OVCAR-3 > 100 µM | RXF 393 > 100 µM | SF-268 > 100 µM | SF-295 > 100 µM | SK-MEL-28 > 100 µM | SK-OV-3 > 100 µM | SNB-75 82.6 µM | TK-10 > 100 µM | UACC-62 > 100 µM

[O-][S+]1CSCS1 (stereo not drawn)
inactive: A498 > 100 µM | ACHN > 100 µM | HL-60 > 100 µM | KM12 > 100 µM | LOX IMVI > 100 µM | NCI-H226 > 100 µM | NCI-H522 > 100 µM | OVCAR-3 > 100 µM | RXF 393 > 100 µM | SF-268 > 100 µM | SF-295 > 100 µM | SK-MEL-28 > 100 µM | SK-OV-3 > 100 µM | SNB-75 > 100 µM | TK-10 > 100 µM | UACC-62 > 100 µM

CC1CC(C)C(=O)C(C(=O)CC2CC(=O)NC2=O)C1 (stereo not drawn)
inactive: A498 > 100 µM | ACHN > 100 µM | HL-60 > 100 µM | KM12 > 100 µM | LOX IMVI > 100 µM | NCI-H226 > 100 µM | NCI-H522 > 100 µM | OVCAR-3 > 100 µM | RXF 393 > 100 µM | SF-268 > 100 µM | SF-295 > 100 µM | SK-MEL-28 > 100 µM | SK-OV-3 > 100 µM | SNB-75 > 100 µM | TK-10 > 100 µM | UACC-62 > 100 µM

COCOCCCCCO[Si](C)(C)C(C)(C)C
inactive: A498 29.4 µM | ACHN 14.4 µM | HL-60 7.1 µM | KM12 23.2 µM | LOX IMVI 16.5 µM | NCI-H522 13.7 µM | OVCAR-3 14.4 µM | RXF 393 16.6 µM | SF-268 5.19 µM | SF-295 14.8 µM | SK-MEL-28 35.1 µM | SK-OV-3 40.6 µM | SNB-75 30.3 µM | TK-10 33 µM | UACC-62 25.3 µM

Cc1cc(NS(=O)(=O)c2ccc(Nc3c4ccccc4nc4c(C(=O)Nc5ccc(S(=O)(=O)N=C(N)N)cc5)ccc(Cl)c34)cc2)no1
inactive: A498 44.6 µM | ACHN 60.5 µM | HL-60 22.2 µM | KM12 87.9 µM | LOX IMVI 19.6 µM | NCI-H226 28.2 µM | NCI-H522 16 µM | OVCAR-3 21.5 µM | RXF 393 29 µM | SF-268 23.8 µM | SF-295 73.3 µM | SK-MEL-28 54.5 µM | SK-OV-3 31.7 µM | SNB-75 25.9 µM | TK-10 > 100 µM | UACC-62 25.1 µM

Cc1cc([N+](=O)[O-])c(S(=O)(=O)c2ccccc2)c([N+](=O)[O-])c1
inactive: A498 18.2 µM | ACHN 16.5 µM | HL-60 2.82 µM | KM12 17.1 µM | LOX IMVI 2.57 µM | NCI-H226 12.2 µM | NCI-H522 1.73 µM | OVCAR-3 5.62 µM | RXF 393 2.2 µM | SF-268 13.2 µM | SF-295 18.8 µM | SK-MEL-28 18.9 µM | SK-OV-3 24.8 µM | SNB-75 22.5 µM | TK-10 17.9 µM | UACC-62 7.69 µM

O=C(Nc1ccc(Br)cc1)C(=O)C(C(=O)c1ccccc1F)C1OC(=O)c2ccccc21 (stereo not drawn)
inactive: A498 40.1 µM | ACHN 38.5 µM | HL-60 23.7 µM | KM12 31.8 µM | LOX IMVI 18.4 µM | NCI-H226 3.48 µM | NCI-H522 20.7 µM | OVCAR-3 39.8 µM | SF-268 24.9 µM | SK-MEL-28 18.7 µM | SK-OV-3 27.5 µM | SNB-75 19.7 µM | TK-10 50.5 µM | UACC-62 14 µM

CCn1c(CSc2nc(-c3ccccc3)c(-c3ccccc3)[nH]2)n[nH]c1=S
inactive: A498 > 100 µM | ACHN > 100 µM | HL-60 > 100 µM | KM12 51.4 µM | LOX IMVI > 100 µM | NCI-H226 > 100 µM | NCI-H522 > 100 µM | OVCAR-3 > 100 µM | SF-268 > 100 µM | SF-295 > 100 µM | SK-MEL-28 > 100 µM | SK-OV-3 > 100 µM | SNB-75 > 100 µM | TK-10 > 100 µM

CN(C)CCNC(=O)c1cccc2c1nc(-c1ccccn1)c1ccccc12
inactive: A498 13.6 µM | ACHN 15.5 µM | HL-60 16.4 µM | KM12 28.3 µM | LOX IMVI > 10 µM | NCI-H226 > 10 µM | OVCAR-3 17.4 µM | RXF 393 14.6 µM | SF-268 23.3 µM | SF-295 17.6 µM | SK-MEL-28 15.6 µM | SK-OV-3 17.4 µM | SNB-75 21.3 µM | TK-10 > 10 µM | UACC-62 17.1 µM

CCCCCC(=O)Nc1nc(O)c2[nH]cnc2n1
inactive: A498 > 100 µM | ACHN > 100 µM | HL-60 > 100 µM | KM12 > 100 µM | NCI-H226 > 100 µM | NCI-H522 52.4 µM | OVCAR-3 > 100 µM | RXF 393 > 100 µM | SF-268 > 100 µM | SF-295 > 100 µM | SK-OV-3 > 100 µM | SNB-75 > 100 µM | TK-10 > 100 µM | UACC-62 > 100 µM
